In article PMC8312610, “F4, a collagen XIX-derived peptide, inhibits tumor angiogenesis through αvβ3 and α5β1 integrin interaction” (Cell Adhesion & Migration, 2021):
Positions of bridges follow the written chain, without caps; N, C: chain ends. No end group written: not given here.

Legend:
α5β1 integrin = test: Solid phase competition assay with biotinylated-F4, α5β1; type: binding, human; settings: unlabeled F4, molar ratio 1/0 to 1/125, integrin coated at 26 × 10^−7 mol/L, 90 min, room temperature, N = 2
Text: Figure 5. F4 directly binds to αvβ3 and α5β1 integrins. Direct interaction between αvβ3 or α5β1 integrin and F4 was studied using solid phase assays as described in the material and method section. The F4 peptide was biotinylated to allow its detection using the streptavidin-peroxidase complex. Different conditions were used. (a-b) The amounts of coated αvβ3 (a) or α5β1 integrin (b) were increased while biotinylated F4 peptide was kept constant. (c-d) The concentration of biotinylated F4 peptide was increased while coated amounts of αvβ3 (c) or α5β1 (d) integrins were kept constant. (e-f) Competitive assays were performed using increasing concentrations of F4 peptide while biotinylated-F4 peptide and αvβ3 (e) or α5β1 (f) integrins were kept constant. The solid phase assays were repeated twice (N = 2; n = 2)
Wells of a 96-well plate were coated with α5β1 (ref. 3230-A5-050, R&D systems) and/or αvβ3 integrin (ref. 3050-AV-050, R&D systems) at different concentrations ranging from 26 × 10^−7 mol/L to 0.1 × 10^−7 mol/L (100 μL per well in PBS). The 96-well plate was left overnight at room temperature. The coating was then blocked with TBS containing 5% nonfat dry milk, 1 mM MgCl2 and 1 mM CaCl2 for 2 h at room temperature. […] The intensity of the yellow coloration was measured at 450 nm with an LB940 spectrophotometer (Berthold Technologies). […]

melanoma cell = settings: cited from earlier work
Text: (§1) The aim of the present work was to study the anti-angiogenic properties of F4 peptide. […] By affinity chromatography, we identified αvβ3 and α5β1 integrins as potential receptors for F4 peptide on endothelial cell surface. Using solid phase assays, ... || Type XIX collagen, that belongs to the FACIT family (Fibril-Associated Collagens with Interrupted Triple helices), is a minor collagen associated to the basement membrane zone.

mouse melanoma model = settings: previously demonstrated by the authors, no ref in abstract; cited from earlier work
Text: as §1

tumor cell = tested on: tumor cell; design: method as in PMID 26621838; settings: in vitro; ref [36]; cited from earlier work

Question: With “CNPEDCLYPVSHAHQR (disulfide 1-6 (inferred)) [F4, collagen XIX-derived peptide, released by plasmin from type XIX collagen]” as the sequence, how does the “competition with biotinylated-F4 binding to α5β1” value (α5β1 integrin) read?
Answer: decreased consequently

Question: And the melanoma cell migration (melanoma cell; in vitro, previously demonstrated by the authors, no ref in abstract)?
Answer: able to inhibit melanoma cell migration

Question: What about the “melanoma cell migration, compared with NC1(XIX) domain” value (melanoma cell; ref [24]) of the same sequence?
Answer: reproduced the whole NC1(XIX) domain effect on melanoma cell migration

Question: What about the “cancer progression in mouse melanoma model” value (mouse melanoma model) of the same sequence?
Answer: cancer progression in a mouse melanoma model

Question: And the tumor cell migration (tumor cell)?
Answer: inhibits in vitro tumor cell migration
